Drawing on patent publication US20040024024A1, “Aromatic sulfone hydroxamates and their use as protease inhibitors” (priority 2001, published 2004), this text covers IC50 for 21 compounds.

The structures appear in SMILES notation. pIC50: −log10 of the molar value.

A word on the pIC50: it is the IC50 on a negative log10 scale, so that one unit is a factor of ten.

In assay [1] the target is T1, Human recombinant MMP-2 (Homo sapiens, UniProt P08253).
T1 construct: made in house; host or cells: MMP-2-transfected p2AHT2 cells
T1 sequence (P08253 110-660): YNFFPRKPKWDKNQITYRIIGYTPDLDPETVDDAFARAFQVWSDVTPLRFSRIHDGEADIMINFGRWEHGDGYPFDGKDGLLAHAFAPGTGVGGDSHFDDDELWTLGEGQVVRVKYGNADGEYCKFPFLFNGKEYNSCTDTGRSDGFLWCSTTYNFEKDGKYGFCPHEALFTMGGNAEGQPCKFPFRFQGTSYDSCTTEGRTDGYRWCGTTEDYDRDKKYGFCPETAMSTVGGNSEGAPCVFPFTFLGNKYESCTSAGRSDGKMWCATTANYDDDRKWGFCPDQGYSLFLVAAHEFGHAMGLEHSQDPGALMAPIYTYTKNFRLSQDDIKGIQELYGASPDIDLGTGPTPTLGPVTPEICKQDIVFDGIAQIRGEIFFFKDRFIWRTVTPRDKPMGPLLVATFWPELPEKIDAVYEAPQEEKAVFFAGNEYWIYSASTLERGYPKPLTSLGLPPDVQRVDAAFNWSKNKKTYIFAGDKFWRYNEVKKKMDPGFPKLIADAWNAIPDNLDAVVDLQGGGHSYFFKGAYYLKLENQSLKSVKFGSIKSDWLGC
Kind of assay: In vitro MMP inhibition, IC50 determination (fluorogenic substrate I). Particulars: value outside parentheses (Ki in parenthesis). The format is biochemical. The method, boiled down: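 APMA- or trypsin-activated recombinant MMP-2 was incubated at room temperature with serial inhibitor dilutions in Tris buffer pH 7.5 (100 mM NaCl, 10 mM CaCl2, 0.05% Brij), with DMSO from 1% stocks, and 4 μM substrate I. Cleavage was read by fluorescence at 328/415 nm; IC50 was taken from the loss of fluorescence versus inhibitor concentration.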

The target in assay [2] is T2, Human recombinant MMP-13 (Homo sapiens, UniProt P45452).
T2 construct: made in house; host or cells: baculovirus / insect cells
The assay is described as above. The format is biochemical. The settings on record: value outside parentheses (Ki in parenthesis). An outline of the steps:
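Fluorescence at 415 nm (excitation 328 nm) reports Gly-Leu cleavage of 4 μM quenched methoxycoumarin peptide substrate I. Human recombinant MMP-13, activated by trypsin or APMA, was incubated at room temperature with varied inhibitor concentrations in pH 7.5 Tris/NaCl/CaCl2 buffer; IC50 derived from reduced fluorescence.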

Regarding `O=C(NCCCOc1ccc(S(=O)(=O)C2(C(=O)NO)CCOCC2)cc1)C1CCCC1` [Example 400], the pIC50 in assay [1] is 6.49; in assay [2] it was 8.05.

As to `CCCC(C)(C)C(=O)NCCCOc1ccc(S(=O)(=O)C2(C(=O)NO)CCOCC2)cc1` [Example 402], the results for the negative-log IC50 (pIC50) in assay [1] and in assay [2] were 6.34 and 7.52, respectively.

Consider `CC(C)(C(=O)NCCCOc1ccc(S(=O)(=O)C2(C(=O)NO)CCOCC2)cc1)c1ccccc1` [Example 404], for which the negative logarithm of the IC50 (pIC50) is 6.60 in assay [1] and 7.82 in assay [2].

Take `O=C(NO)C1(S(=O)(=O)c2ccc(OCCCSc3nc4c(Cl)cc(Cl)cc4o3)cc2)CCOCC1` [Example 407]: the pIC50 in assay [1] was 6.55; in assay [2] it was 7.60.

Consider `O=C(NO)C1(S(=O)(=O)c2ccc(OCCCN3CCCc4ccccc43)cc2)CCOCC1` [Example 412], for which the negative logarithm of the IC50 (pIC50) was 6.50 in assay [1] and 7.39 in assay [2].

For `O=C(NO)C1(S(=O)(=O)c2ccc(OCCCCN3CCCc4ccccc43)cc2)CCOCC1` [Example 413], the negative-log IC50 (pIC50) in assay [1] is 7.21; in assay [2] it was 8.10.

On to `O=C(NO)C1(S(=O)(=O)c2ccc(OCCCCCN3CCCc4ccccc43)cc2)CCOCC1` [Example 414], for which the negative logarithm of the IC50 (pIC50) was 7.43 in assay [1] and 7.85 in assay [2].

For the compound `COc1ccc2c(c1)CCCN2CCCCCOc1ccc(S(=O)(=O)C2(C(=O)NO)CCOCC2)cc1` [Example 416], the pIC50 was 7.77 in assay [1] and 8.07 in assay [2].

Consider `O=C(NCCCOc1ccc(S(=O)(=O)C2(C(=O)NO)CCOCC2)cc1)c1ccccc1` [Example 417], for which the negative-log IC50 (pIC50) in assay [1] was 6.50; in assay [2] it was 8.59.

Turning to `COc1ccc(S(=O)(=O)NCCCOc2ccc(S(=O)(=O)C3(C(=O)NO)CCOCC3)cc2)cc1` [Example 419], the negative logarithm of the IC50 (pIC50) in assay [1] is 6.92; in assay [2], 8.40.

In the case of `COc1ccc(C(=O)N2CCCC(COc3ccc(S(=O)(=O)C4(C(=O)NO)CCOCC4)cc3)C2)cc1` (stereo not drawn) [Example 421], the negative-log IC50 (pIC50) in assay [1] is 6.19; in assay [2], 6.59.

As for `COc1ccc(C(=O)N2CC[C@@H](Oc3ccc(S(=O)(=O)C4(C(=O)NO)CCOCC4)cc3)C2)cc1` [Example 422], the pIC50 in assay [1] is 5.14; in assay [2] it was 5.83.

`O=C(c1ccc(OC(F)(F)F)cc1)N1CC[C@@H](Oc2ccc(S(=O)(=O)C3(C(=O)NO)CCOCC3)cc2)C1` [Example 423]: the pIC50 in assay [1] is 5.05; in assay [2], 5.80.

`O=C(c1cccc(C(F)(F)F)c1)N1CC[C@@H](Oc2ccc(S(=O)(=O)C3(C(=O)NO)CCOCC3)cc2)C1` [Example 424]: the negative-log IC50 (pIC50) in assay [1] was 6.31; in assay [2], 6.72.

With `O=C(C1CCCCC1)N1CC[C@@H](Oc2ccc(S(=O)(=O)C3(C(=O)NO)CCOCC3)cc2)C1` [Example 425], the pIC50 in assay [1] is less than 5.00; in assay [2], 5.48.

In the case of `COc1ccc(C(=O)N2CC[C@@H](Oc3ccc(S(=O)(=O)C4(C(=O)NO)CCOCC4)cc3)C2)cc1OC` [Example 426], the negative logarithm of the IC50 (pIC50) in assay [1] is less than 5.00; in assay [2], 5.29.

For `CC(=O)N1CC[C@@H](Oc2ccc(S(=O)(=O)C3(C(=O)NO)CCOCC3)cc2)C1` [Example 427], the negative logarithm of the IC50 (pIC50) is 6.60 in assay [1] and 6.94 in assay [2].

Consider `COc1ccc(S(=O)(=O)CCCCOc2ccc(S(=O)(=O)C3(C(=O)NO)CCOCC3)cc2)cc1` [Example 428], for which the figures for the negative logarithm of the IC50 (pIC50) in assay [1] and in assay [2] were 7.70 and 8.85, respectively.

In the case of `COc1ccc(SCC(C)(C)COc2ccc(S(=O)(=O)C3(C(=O)NO)CCOCC3)cc2)cc1` [Example 430], the pIC50 in assay [1] is 5.57; in assay [2], 6.71.

For the compound `COc1ccc(S(=O)(=O)C[C@@H](C)COc2ccc(S(=O)(=O)C3(C(=O)NO)CCOCC3)cc2)cc1` [Example 431], the pIC50 in assay [1] is 6.94; in assay [2] it was 8.40.

As for `COc1ccc(SC[C@@H](C)COc2ccc(S(=O)(=O)C3(C(=O)NO)CCOCC3)cc2)cc1` [Example 432], the negative logarithm of the IC50 (pIC50) in assay [1] is 8.15; in assay [2] it was 8.82.
